The text below walks through data of ChEMBL document CHEMBL4665650, “Towards a TREK-1/2 (TWIK-Related K+ Channel 1 and 2) dual activator tool compound: Multi-dimensional optimization of BL-1249” (Bioorg Med Chem Lett, 2019).

The target of data set [1] is Sodium-dependent noradrenaline transporter (Homo sapiens) (UniProt P23975). Description: Displacement of [125I]RTI-55 from full length recombinant human NET expressed in MDCK cells at 30 uM after 180 mins by radiometric scintillation analysis relative to control. Format: cell-based.
For data set [2], the species on record is Rattus norvegicus. In words: Displacement of [3H]GABA from rat brain GABA receptor at 30 uM after 20 mins by radiometric scintillation analysis relative to control.
The species entered for data set [3] is Rattus norvegicus. In words: Displacement of [125I]-Triiodothyronine from thyroid hormone receptors in rat at 30 uM incubated for 1080 mins by radiometric scintillation analysis relative to control.
Data set [4] addresses 5-hydroxytryptamine receptor 1A (Homo sapiens) (UniProt P08908). Description: Displacement of [3H]-8-OH-DPAT from full length recombinant human 5HT1A receptor expressed in CHO-K1 cells at 30 uM incubated for 60 mins by radiometric scintillation analysis relative to control. Type of data set: cell-based. A general note: Loss of bound radioactivity is the signal in a displacement assay; it reports binding, not function.

Data set [5] is filed under the species Rattus norvegicus. Description: Displacement of [35S] dATPalphaS from Wistar rat brain P2Y receptor at 30 uM incubated for 180 mins by radiometric scintillation analysis relative to control. Format: tissue-based.
Data set [6] has as its target Cysteinyl leukotriene receptor 1 (Homo sapiens) (UniProt Q9Y271). Description: Displacement of [3H]LTD4 from full length recombinant human CysLT1 Leukotriene receptor expressed in CHO-K1 cells at 30 uM incubated for 30 mins by radiometric scintillation analysis relative to control. Format: cell-based.
The target in data set [7] is Androgen receptor (Homo sapiens) (UniProt P10275). Description: Displacement of [3H]methyltrienolone from human LNCaP cells derived androgen receptor at 30 uM measured after 1200 mins by radiometric scintillation analysis relative to control. Format: cell-based.
Androgen receptor (Homo sapiens), sequence (P10275 whole entry): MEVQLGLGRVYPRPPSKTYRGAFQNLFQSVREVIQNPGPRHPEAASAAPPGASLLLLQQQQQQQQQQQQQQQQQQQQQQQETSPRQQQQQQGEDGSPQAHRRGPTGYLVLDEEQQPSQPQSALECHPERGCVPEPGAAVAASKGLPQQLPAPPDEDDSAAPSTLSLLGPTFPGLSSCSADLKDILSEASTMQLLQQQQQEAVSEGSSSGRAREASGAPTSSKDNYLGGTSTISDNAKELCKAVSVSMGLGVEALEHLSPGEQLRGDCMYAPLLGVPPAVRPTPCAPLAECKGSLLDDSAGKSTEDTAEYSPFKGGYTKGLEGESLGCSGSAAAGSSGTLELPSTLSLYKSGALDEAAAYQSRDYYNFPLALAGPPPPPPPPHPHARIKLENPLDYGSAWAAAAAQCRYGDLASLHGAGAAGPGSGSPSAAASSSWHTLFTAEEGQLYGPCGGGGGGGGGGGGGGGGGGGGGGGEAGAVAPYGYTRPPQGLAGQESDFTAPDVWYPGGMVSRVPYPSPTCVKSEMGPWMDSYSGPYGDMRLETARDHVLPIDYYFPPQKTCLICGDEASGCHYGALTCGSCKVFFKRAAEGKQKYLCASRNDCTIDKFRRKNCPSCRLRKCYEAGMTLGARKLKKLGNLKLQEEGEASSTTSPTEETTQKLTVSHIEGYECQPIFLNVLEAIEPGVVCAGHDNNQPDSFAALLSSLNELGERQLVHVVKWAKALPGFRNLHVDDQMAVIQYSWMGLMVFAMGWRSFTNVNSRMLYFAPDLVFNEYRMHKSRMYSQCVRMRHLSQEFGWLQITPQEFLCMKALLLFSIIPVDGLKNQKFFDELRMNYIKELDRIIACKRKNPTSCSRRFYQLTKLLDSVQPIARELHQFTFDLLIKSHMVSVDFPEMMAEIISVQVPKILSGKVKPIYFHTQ
For data set [8], the target named is Adenosine receptor A2a (Homo sapiens) (UniProt P29274). Description: Displacement of [3H]CGS-21680 from full length recombinant human A2A receptor expressed in HEK293 cells at 30 uM measured after 90 mins by radiometric scintillation analysis relative to control. Format: cell-based.
Adenosine receptor A2a (Homo sapiens), sequence (P29274 whole entry): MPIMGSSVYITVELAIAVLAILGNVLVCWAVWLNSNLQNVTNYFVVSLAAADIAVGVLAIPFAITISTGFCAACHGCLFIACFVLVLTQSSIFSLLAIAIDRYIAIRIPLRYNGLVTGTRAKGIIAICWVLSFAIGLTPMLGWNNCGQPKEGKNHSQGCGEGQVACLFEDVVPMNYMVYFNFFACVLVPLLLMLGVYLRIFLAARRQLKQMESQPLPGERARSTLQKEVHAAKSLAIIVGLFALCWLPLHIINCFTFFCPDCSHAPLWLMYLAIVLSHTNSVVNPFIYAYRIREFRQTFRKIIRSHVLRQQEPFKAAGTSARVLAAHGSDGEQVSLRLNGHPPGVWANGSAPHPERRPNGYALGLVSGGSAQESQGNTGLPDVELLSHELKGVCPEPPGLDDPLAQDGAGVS
The target of data set [9] is Adenosine receptor A1 (Homo sapiens) (UniProt P30542). Description: Displacement of [3H]DPCPX from recombinant full length human adenosine A1 receptor expressed in CHO-K1 cells at 30 uM incubated for 90 mins by radiometric scintillation analysis relative to control. Type of data set: cell-based.
Adenosine receptor A1 (Homo sapiens), sequence (P30542 whole entry): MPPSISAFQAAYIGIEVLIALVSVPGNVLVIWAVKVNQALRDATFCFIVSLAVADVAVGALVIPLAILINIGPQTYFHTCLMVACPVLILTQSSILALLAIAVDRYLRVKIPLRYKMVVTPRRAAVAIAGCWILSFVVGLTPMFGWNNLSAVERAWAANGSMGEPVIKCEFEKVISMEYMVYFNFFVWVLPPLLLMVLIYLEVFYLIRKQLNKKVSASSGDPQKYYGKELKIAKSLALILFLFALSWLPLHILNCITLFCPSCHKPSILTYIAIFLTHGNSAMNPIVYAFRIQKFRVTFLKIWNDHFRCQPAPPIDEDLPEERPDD
In data set [10] the target is Potassium/sodium hyperpolarization-activated cyclic nucleotide-gated channel 4 (Homo sapiens) (UniProt Q9Y3Q4). In words: Activation of HCN4 (unknown origin) at 30 uM by manual patch clamp method relative to control. In general terms: In patch-clamp work, channel activity is measured electrically.
Potassium/sodium hyperpolarization-activated cyclic nucleotide-gated channel 4 (Homo sapiens), sequence (Q9Y3Q4 whole entry): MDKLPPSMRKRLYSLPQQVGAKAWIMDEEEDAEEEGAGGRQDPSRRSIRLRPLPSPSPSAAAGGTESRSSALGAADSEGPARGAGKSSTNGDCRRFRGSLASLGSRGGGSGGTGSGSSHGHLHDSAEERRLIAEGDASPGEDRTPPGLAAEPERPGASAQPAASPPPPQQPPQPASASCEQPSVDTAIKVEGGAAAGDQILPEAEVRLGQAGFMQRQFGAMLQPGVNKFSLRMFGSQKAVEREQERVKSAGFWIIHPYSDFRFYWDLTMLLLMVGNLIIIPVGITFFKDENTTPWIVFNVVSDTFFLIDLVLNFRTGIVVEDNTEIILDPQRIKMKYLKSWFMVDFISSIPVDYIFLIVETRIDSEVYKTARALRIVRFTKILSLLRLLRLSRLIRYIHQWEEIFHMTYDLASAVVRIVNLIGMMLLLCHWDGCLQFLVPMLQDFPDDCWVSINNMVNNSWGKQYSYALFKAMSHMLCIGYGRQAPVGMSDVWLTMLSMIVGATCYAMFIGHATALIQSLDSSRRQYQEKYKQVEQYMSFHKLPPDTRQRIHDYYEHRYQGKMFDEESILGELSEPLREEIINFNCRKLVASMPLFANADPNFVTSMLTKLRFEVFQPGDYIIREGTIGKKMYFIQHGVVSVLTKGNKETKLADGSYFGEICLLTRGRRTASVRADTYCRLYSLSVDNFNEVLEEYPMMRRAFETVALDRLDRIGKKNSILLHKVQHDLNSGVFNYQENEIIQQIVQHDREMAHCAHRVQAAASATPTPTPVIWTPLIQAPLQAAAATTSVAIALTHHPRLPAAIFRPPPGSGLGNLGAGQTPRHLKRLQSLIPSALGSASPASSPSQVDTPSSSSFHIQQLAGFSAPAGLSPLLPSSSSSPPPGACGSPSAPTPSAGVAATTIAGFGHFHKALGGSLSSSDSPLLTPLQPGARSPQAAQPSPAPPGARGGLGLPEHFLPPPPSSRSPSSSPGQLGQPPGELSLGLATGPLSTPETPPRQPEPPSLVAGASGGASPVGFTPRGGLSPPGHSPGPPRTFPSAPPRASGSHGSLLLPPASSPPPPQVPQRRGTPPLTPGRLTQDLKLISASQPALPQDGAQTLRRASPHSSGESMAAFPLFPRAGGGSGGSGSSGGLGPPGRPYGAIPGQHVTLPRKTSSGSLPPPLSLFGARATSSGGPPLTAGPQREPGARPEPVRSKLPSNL
Data set [11] deals with Neuronal acetylcholine receptor subunit alpha-7 (Homo sapiens) (UniProt P36544). In words: Inhibition of alpha7 nAChR (unknown origin) at 30 uM by manual patch clamp method relative to control.
The target of data set [12] is Potassium voltage-gated channel subfamily KQT member 3 (Homo sapiens) (UniProt O43525). In words: Inhibition of Kv7.3 (unknown origin) at 30 uM by manual patch clamp method relative to control.
Potassium voltage-gated channel subfamily KQT member 3 (Homo sapiens), sequence (O43525 whole entry): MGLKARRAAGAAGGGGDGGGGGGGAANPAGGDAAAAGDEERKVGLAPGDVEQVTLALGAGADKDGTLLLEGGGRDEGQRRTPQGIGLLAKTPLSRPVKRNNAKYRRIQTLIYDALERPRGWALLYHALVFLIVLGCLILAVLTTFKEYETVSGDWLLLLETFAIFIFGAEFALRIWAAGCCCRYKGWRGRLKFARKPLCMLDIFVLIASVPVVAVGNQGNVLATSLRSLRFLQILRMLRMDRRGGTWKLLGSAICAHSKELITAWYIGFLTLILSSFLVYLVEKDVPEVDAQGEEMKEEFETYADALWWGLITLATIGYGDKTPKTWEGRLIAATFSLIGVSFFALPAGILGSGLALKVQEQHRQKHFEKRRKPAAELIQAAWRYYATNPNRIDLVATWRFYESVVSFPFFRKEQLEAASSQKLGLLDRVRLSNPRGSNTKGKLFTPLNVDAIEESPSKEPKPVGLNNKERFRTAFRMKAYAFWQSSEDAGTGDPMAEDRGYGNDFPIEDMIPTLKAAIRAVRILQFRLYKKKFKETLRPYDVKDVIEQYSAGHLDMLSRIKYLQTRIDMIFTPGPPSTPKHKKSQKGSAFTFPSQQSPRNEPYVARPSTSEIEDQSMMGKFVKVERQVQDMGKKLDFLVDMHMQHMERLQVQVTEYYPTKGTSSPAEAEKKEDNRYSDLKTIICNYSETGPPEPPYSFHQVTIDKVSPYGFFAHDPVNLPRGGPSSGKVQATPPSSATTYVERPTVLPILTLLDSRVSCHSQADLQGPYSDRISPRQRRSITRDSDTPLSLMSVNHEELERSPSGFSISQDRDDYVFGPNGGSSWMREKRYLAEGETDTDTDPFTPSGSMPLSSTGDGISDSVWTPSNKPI
Another data set has as its target Kv7.1 (Homo sapiens, UniProt P51787). In words: Inhibition of Kv7.1 (unknown origin) at 30 uM by manual patch clamp method relative to control.
For data set [13], the target named is A-type potassium channel modulatory protein KCNIP2 (Homo sapiens) (UniProt Q9NS61). In words: Inhibition of KCHiP (unknown origin) at 30 uM by manual patch clamp method relative to control.
A-type potassium channel modulatory protein KCNIP2 (Homo sapiens), sequence (Q9NS61 whole entry): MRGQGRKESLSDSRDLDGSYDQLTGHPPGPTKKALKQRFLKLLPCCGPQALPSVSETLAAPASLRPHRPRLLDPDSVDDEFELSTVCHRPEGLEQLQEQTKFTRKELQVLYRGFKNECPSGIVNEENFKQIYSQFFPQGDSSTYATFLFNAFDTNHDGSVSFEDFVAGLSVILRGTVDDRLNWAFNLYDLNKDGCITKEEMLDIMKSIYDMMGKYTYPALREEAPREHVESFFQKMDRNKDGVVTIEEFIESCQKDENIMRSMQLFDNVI
Data set [14] deals with A-type voltage-gated potassium channel KCND3 (Homo sapiens, UniProt Q9UK17). Description: Activation of Kv4.3 (unknown origin) at 30 uM by manual patch clamp method relative to control.
Data set [15] has as its target Potassium voltage-gated channel subfamily A member 3 (Homo sapiens) (UniProt P22001). Description: Inhibition of Kv1.3 (unknown origin) at 30 uM by manual patch clamp method relative to control.
Data set [16] addresses Intermediate conductance calcium-activated potassium channel protein 4 (Homo sapiens) (UniProt O15554). In words: Activation of Kca3.1 (unknown origin) at 30 uM by manual patch clamp method relative to control.
The target in data set [17] is Inward rectifier potassium channel 2 (Homo sapiens, UniProt P63252). In words: Activation of Kir2.1 (unknown origin) at 30 uM by manual patch clamp method relative to control.
In data set [18] the target is T1, Potassium channel subfamily K member 10 (Homo sapiens, UniProt P57789).
T1 sequence (P57789 whole entry): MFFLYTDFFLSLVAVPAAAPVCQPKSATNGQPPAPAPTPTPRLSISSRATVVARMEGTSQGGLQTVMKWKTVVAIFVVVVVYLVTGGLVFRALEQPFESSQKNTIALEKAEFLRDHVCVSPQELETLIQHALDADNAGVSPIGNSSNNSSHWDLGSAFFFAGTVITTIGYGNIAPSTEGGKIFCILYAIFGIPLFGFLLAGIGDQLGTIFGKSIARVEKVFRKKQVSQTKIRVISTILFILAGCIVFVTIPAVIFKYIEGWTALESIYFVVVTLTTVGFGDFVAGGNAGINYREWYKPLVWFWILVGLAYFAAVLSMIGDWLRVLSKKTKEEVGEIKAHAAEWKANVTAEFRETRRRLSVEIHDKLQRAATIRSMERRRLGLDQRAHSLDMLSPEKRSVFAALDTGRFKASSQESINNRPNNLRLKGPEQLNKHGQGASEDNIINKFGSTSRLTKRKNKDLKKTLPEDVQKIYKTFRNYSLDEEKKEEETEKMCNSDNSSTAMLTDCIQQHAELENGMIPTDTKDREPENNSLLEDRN
Description: Activation of human TREK2 by thallium flux mobilization assay.

In data set [19] the target is T2, Potassium channel subfamily K member 2 (Homo sapiens, UniProt O95069).
T2 sequence (O95069 whole entry): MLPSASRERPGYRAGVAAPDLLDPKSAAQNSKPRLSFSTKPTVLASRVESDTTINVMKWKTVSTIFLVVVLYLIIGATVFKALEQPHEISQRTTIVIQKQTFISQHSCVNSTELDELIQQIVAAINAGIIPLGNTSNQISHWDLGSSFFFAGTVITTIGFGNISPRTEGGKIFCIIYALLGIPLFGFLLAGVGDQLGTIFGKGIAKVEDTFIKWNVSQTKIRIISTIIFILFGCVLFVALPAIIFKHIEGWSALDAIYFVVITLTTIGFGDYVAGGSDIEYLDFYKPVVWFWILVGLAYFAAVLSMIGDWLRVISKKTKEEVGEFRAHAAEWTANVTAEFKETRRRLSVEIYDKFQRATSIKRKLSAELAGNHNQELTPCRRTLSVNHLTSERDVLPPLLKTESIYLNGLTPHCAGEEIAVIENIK
In words: Activation of human TREK1 by thallium flux mobilization assay.

For data set [20], the target named is T3, Potassium channel subfamily K member 10 (Homo sapiens) (UniProt P57789).
T3 sequence (whole entry): T1 sequence (P57789 whole entry)
Description: Activation of human TREK2 at 30 uM by thallium flux mobilization assay relative to control. Conditions: filed as activator.

Data set [21] deals with T4, Potassium channel subfamily K member 2 (Homo sapiens) (UniProt O95069).
T4 sequence (whole entry): T2 sequence (O95069 whole entry)
Description: Activation of human TREK1 at 30 uM by thallium flux mobilization assay relative to control. Conditions: filed as activator.

Data set [22] in a line: AUC in rat at 3 mg/kg, po. Format: ADME, organism-based. More on the design: dose 3 mg/kg. Conditions: in vivo.
Data set [23] can be described thus: Elimination half life in rat at 3 mg/kg, po. Type of data set: ADME, organism-based. Conditions: in vivo, read-out: beta t1/2 (converted).
A short description of data set [24]: Cmax in rat at 3 mg/kg, po. The conditions noted are these: in vivo. Format: ADME, organism-based. More on the design: route oral, dose 3 mg/kg.
Data set [25] in a line: Fraction unbound in mouse plasma. Format: ADME, cell-free.
Data set [26] in a line: Fraction unbound in human plasma. Type of data set: ADME, cell-free.
Data set [27] in a line: Fraction unbound in rat plasma. Type of data set: ADME, cell-free.
Data set [28] concerns the target Sodium-dependent dopamine transporter (Homo sapiens) (UniProt Q01959). In words: Displacement of [125I]RTI-55 from full length recombinant human dopamine transporter expressed in CHO-S cells at 30 uM after 180 mins by radiometric scintillation analysis relative to control. Type of data set: cell-based.
A short description of data set [29]: Half life in rat at 0.05 mg/kg, iv administered as cassette dose. Format: ADME, organism-based. Conditions: in vivo.

Sodium-dependent dopamine transporter (Homo sapiens), sequence (Q01959 whole entry): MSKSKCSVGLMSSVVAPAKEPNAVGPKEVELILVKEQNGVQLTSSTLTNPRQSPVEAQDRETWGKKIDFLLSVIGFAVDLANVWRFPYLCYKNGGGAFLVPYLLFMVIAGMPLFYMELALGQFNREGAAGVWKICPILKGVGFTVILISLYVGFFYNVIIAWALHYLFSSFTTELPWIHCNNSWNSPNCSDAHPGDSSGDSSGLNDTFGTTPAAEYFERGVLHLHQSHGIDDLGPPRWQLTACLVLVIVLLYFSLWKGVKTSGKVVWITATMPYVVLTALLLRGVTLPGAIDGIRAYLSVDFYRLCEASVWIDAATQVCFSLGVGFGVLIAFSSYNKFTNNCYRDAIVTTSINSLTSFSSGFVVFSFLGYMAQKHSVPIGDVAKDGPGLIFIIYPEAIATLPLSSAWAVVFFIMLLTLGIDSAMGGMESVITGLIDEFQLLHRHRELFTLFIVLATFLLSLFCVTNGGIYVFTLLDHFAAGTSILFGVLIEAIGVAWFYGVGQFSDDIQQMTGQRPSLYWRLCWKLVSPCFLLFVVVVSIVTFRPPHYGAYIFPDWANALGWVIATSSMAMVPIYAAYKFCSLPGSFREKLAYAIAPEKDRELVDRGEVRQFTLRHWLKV
5-hydroxytryptamine receptor 1A (Homo sapiens), sequence (P08908 whole entry): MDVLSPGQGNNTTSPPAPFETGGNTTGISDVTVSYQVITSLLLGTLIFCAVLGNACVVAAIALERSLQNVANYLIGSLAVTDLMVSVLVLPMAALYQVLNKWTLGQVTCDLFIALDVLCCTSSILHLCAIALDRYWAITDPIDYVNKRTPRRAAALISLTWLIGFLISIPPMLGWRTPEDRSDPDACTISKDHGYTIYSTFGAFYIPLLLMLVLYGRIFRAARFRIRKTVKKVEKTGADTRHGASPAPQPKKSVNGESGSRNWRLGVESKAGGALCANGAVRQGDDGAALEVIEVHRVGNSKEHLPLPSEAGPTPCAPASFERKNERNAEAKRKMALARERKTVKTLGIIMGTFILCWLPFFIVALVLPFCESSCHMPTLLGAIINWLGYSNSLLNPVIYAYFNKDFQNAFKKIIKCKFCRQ

What is called inhibition is the change of the read-out against control, counted positive when it falls. Usually EC50 stands for the concentration needed to bring the measured effect to its halfway point. A lower EC50 goes with an effect from little substance. For orientation: AUC means the area under the concentration-time curve, a measure of exposure. A low value points to less exposure. The term Cmax denotes the maximum level reached in the sampled fluid or tissue. One may read the fraction unbound as free concentration divided by total concentration. Higher therefore signals much free substance. Take `O=C(Nc1cc(F)c(Br)cc1C(=O)O)c1ccc(SC(F)(F)F)cc1`: the inhibition is 77% in [1]; 70% in the data set filed under Rattus norvegicus [2]; 79% in the data set filed under Rattus norvegicus [3]; 79% in data set [4]; 90% in the data set filed under Rattus norvegicus [5]; 69% in [6]. In addition, the inhibition in data set [7] came to 79%; in data set [8], 55%; in [9] it was 70%; in data set [11], 7%; in [12] it was 39%; in data set [13] it was 76%. Moreover, the inhibition was 94% in [15] and 67% in data set [28]. For the same compound, the Activity in data set [10] is -32%; in [14], -21%; in data set [16] it was -9%; in data set [17], -16%; in data set [20], 84%; in [21], 101%. This compound came in with an inhibition at 30 µM against Kv7.1 of 57%. For the same compound, the EC50 in data set [18] worked out at 5.5 µM; in data set [19], 6.1 µM. The AUC in data set [22] came to 60.6 µM·h. In data set [23], the half-life was 6.3 h. Moreover, the peak level in data set [24] (Cmax) was 8.8 µM. The free fraction (fraction unbound) in data set [25] amounted to 0.052; in data set [26] it was 0.003; in data set [27], 0.041.
`c1ccc(-c2nnn[nH]2)c(Nc2cccc3c2CCCC3)c1`: the figures for the EC50 in data set [18] and in data set [19] were 7.7 µM and 5.2 µM, respectively. Besides, the values for the Activity in data set [20] and in data set [21] were 133% and 109%, respectively. The fraction unbound in data set [26] was under 0.001; in data set [27], 0.001. Further, in data set [29], the half-life was 3 min.
